Laboratory results taken from patent US20220401500A1, “BACTERIA AND HERBAL EXTRACT NUTRACEUTICAL BLENDS FOR LUNG HEALTH MAINTENANCE” (THE UAB RESEARCH FOUNDATION, priority 2021, published 2022).

Legend:
Ac-PGP = experiment: Loss of function of Ac-PGP by treatment with RTR in vivo; parameters: species or system mouse
[1] = test system: probiotic strains RSB11, RSB12, or RSB13; experiment: Culture growth of probiotic strains with herbal extracts or Vitamin D; format: cell-based, Lactobacillus; details: number of colonies per plate; FIG. 11
C57BL/6 mouse pups = experiment: In vivo (mouse) dysbiosis model of chronic lung disease, LPS-treated pups

Substance: Arginine-Threonine-Arginine [RTR]
- chronic lung disease (Ac-PGP; in vivo, FIG. 9): protective
- RAC (Ac-PGP; noxious stimuli, LPS+RTR vs LPS alone, P<0.05, FIG. 9B): significantly higher
- MPO concentrations (Ac-PGP; noxious stimuli, LPS+RTR vs LPS alone, P<0.05, FIG. 9C): significantly lower
- RVH (Ac-PGP; noxious stimuli, LPS+RTR vs LPS alone, P<0.05, FIG. 9D): significantly less severe

Substance: N-acetyl-Proline-Glycine-Proline [Ac-PGP]
- NE concentrations (mice; BALF, normoxia and noxious stimuli, P<0.05, FIG. 8C): increased
- MPO concentration (mice; ELISA, normoxia and noxious stimuli, P<0.05, FIG. 8B): increased
- chronic lung disease (mice; gain of function, in vivo, FIG. 8): causes chronic lung disease
- RAC counts (mice; normoxia and noxious stimuli, P<0.05, FIG. 8A): decreased
- right ventricular hypertrophy (RVH) (mice; normoxia and noxious stimuli, P<0.05, FIG. 8D): increased

Substance: Vitamin D
- culture growth of probiotic strains RSB11, RSB12, RSB13 [1]: do not have an inhibitory effect

Substance: lipopolysaccharide [LPS]
- Ac-PGP levels (C57BL/6 mouse pups; BALF, by HPLC, vs controls, P<0.05, FIG. 7E): significantly increased
- myeloperoxidase (MPO) levels (C57BL/6 mouse pups; BALF, vs controls, P<0.05, FIG. 7C): significantly increased
- neutrophil elastase (NE) levels (C57BL/6 mouse pups; BALF, vs controls, P<0.05, FIG. 7D): significantly increased
- lung tissue structure (C57BL/6 mouse pups; LPS-treated C57BL/6 mouse pups, FIG. 7A): alveolar hypoplasia and simplification
- radial alveolar counts (RAC) (C57BL/6 mouse pups; vs controls, P<0.05, FIG. 7B): significantly decreased
